Assay results from patent publication US20230293526A1, “METHOD FOR TREATING CANCER WITH A REVERSE TRANSCRIPTASE INHIBITOR” (PrimeFour Therapeutics, Inc., priority 2020, published 2023).

Experiments:
cancer cell lines = experiment: Cancer cell proliferation activity of representative nucleosides, CellTiterGlo 72 h (Example 7, Tables 8 and 9); format: cell-based; conditions: 72 h
Outline: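 Percent viability was set against 0.1% DMSO (100%) and 10 μM staurosporine (0%), with signal from CellTiterGlo luminescence. Dose-response treatment began one day after seeding and lasted 72 h at 37° C under 5% or 10% CO2, with 0.1% final DMSO.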

human LINE-1 = experiment: Human LINE-1 (L1) retrotransposition dual-luciferase reporter assay in HeLa cells; format: cell-based; conditions: Homo sapiens, HeLa, 72 h, read-out: Human LINE-1 IC50 (Human L1 activity inhibition)
Outline: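 Compound dilution series (final DMSO 0.2%) added right after transfecting HeLa cells with the pYX017 L1 dual-luciferase reporter; 72 h culture at 37 °C, 5% CO2, triplicates. IC50 fitted by non-linear logistic regression to firefly-to-Renilla luminescence ratio (×10,000).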

CC[C@]1(CO)O[C@@H](n2cnc3c(N)nc(N)nc32)C[C@@H]1O [compound 25]
IC50 (cancer cell lines; 72 h, 5637, bladder): 3.52 µM
IC50 (cancer cell lines; CLS439, bladder): > 50 µM
IC50 (cancer cell lines; HS729, muscle): 3.42 µM
IC50 (cancer cell lines; J82, bladder): > 50 µM
IC50 (cancer cell lines; JAR, placenta): > 50 µM
IC50 (cancer cell lines; MT3, breast): 1.62 µM
IC50 (cancer cell lines; PC3, prostate): 3.02 µM
IC50 (cancer cell lines; RD, muscle): 3.39 µM
IC50 (cancer cell lines; T24, bladder): > 50 µM
IC50 (cancer cell lines; Homo sapiens, 22Rv1, 72 h, 22RV1, prostate): > 50 µM
IC50 (cancer cell lines; Homo sapiens, 786-0, 72 h, 786O, kidney): > 50 µM
IC50 (cancer cell lines; Homo sapiens, A204, 72 h, A204, muscle): 1.58 µM
IC50 (cancer cell lines; Homo sapiens, A549, 72 h, A549, lung): 3.25 µM
IC50 (cancer cell lines; Homo sapiens, A673, 72 h, A673, bone): > 50 µM
IC50 (cancer cell lines; Homo sapiens, A2780, 72 h, A2780, ovary): > 50 µM
IC50 (cancer cell lines; Homo sapiens, A-375, 72 h, A375, skin): 2.34 µM
IC50 (cancer cell lines; Homo sapiens, A-431, 72 h, A431, skin): > 50 µM
IC50 (cancer cell lines; Homo sapiens, ACHN, kidney): 5.89 µM
IC50 (cancer cell lines; Homo sapiens, ASPC1, 72 h, ASPC1, pancreas): 5.31 µM
IC50 (cancer cell lines; Homo sapiens, BT-20, 72 h, BT20, breast): > 50 µM
IC50 (cancer cell lines; Homo sapiens, BXPC-3, 72 h, BXPC3, pancreas): 3.54 µM
IC50 (cancer cell lines; Homo sapiens, C-33-A, C33A, endometrial): 3.7 µM
IC50 (cancer cell lines; Homo sapiens, CAKI-1, 72 h, CAKI1, kidney): 5.33 µM
IC50 (cancer cell lines; Homo sapiens, COLO 205, 72 h, COLO205, colon): 1.8 µM
IC50 (cancer cell lines; Homo sapiens, COLO-678, 72 h, COLO678, colon): > 50 µM
IC50 (cancer cell lines; Homo sapiens, Ca-Ski, CASKI, endometrial): > 50 µM
IC50 (cancer cell lines; Homo sapiens, Caco-2, 72 h, CACO2, colon): > 50 µM
IC50 (cancer cell lines; Homo sapiens, Calu-6, 72 h, CALU6, lung): 6.13 µM
IC50 (cancer cell lines; Homo sapiens, DLD-1, 72 h, DLD1, colon): > 50 µM
IC50 (cancer cell lines; Homo sapiens, DU-145, 72 h, DU145, prostate): 6.33 µM
IC50 (cancer cell lines; Homo sapiens, EFO-21, 72 h, EFO21, ovary): > 50 µM
IC50 (cancer cell lines; Homo sapiens, EJ-28, 72 h, EJ28, bladder): > 50 µM
IC50 (cancer cell lines; Homo sapiens, Granta-519, 72 h, GRANTA-519, hematological): 0.89 µM
IC50 (cancer cell lines; Homo sapiens, HCT-15, 72 h, HCT15, colon): > 50 µM
IC50 (cancer cell lines; Homo sapiens, HCT-116, 72 h, HCT116, colon): 3.2 µM
IC50 (cancer cell lines; Homo sapiens, HEK293, 72 h, HEK293, kidney): 6.09 µM
IC50 (cancer cell lines; Homo sapiens, HL-60, 72 h, HL-60, hematological): 3.46 µM
IC50 (cancer cell lines; Homo sapiens, HT-29, 72 h, HT29, colon): > 50 µM
IC50 (cancer cell lines; Homo sapiens, HT-1080, 72 h, HT1080, connective tissue): 3.72 µM
IC50 (cancer cell lines; Homo sapiens, HeLa, endometrial): 3.1 µM
IC50 (cancer cell lines; Homo sapiens, HepG2, 72 h, HEPG2, liver): > 50 µM
IC50 (cancer cell lines; Homo sapiens, Hs-578T, HS578T, breast): > 50 µM
IC50 (cancer cell lines; Homo sapiens, IGROV-1, 72 h, IGROV1, ovary): > 50 µM
IC50 (cancer cell lines; Homo sapiens, IMR-90, 72 h, IMR90, lung): 3.47 µM
IC50 (cancer cell lines; Homo sapiens, JEG-3, 72 h, JEG3, placenta): > 50 µM
IC50 (cancer cell lines; Homo sapiens, JIMT-1, 72 h, JIMT1, breast): 5.55 µM
IC50 (cancer cell lines; Homo sapiens, K562, 72 h, K-562, hematological): > 50 µM
IC50 (cancer cell lines; Homo sapiens, Kasumi 1, 72 h, KASUMI-1, hematological): 0.18 µM
IC50 (cancer cell lines; Homo sapiens, L-363, 72 h, L-363, hematological): 3.29 µM
IC50 (cancer cell lines; Homo sapiens, LoVo, colon): > 50 µM
IC50 (cancer cell lines; Homo sapiens, MCF7, 72 h, MCF7, breast): 5.68 µM
IC50 (cancer cell lines; Homo sapiens, MDA-MB-231, 72 h, MDAMB231, breast): 2.85 µM
IC50 (cancer cell lines; Homo sapiens, MDA-MB-435, 72 h, MDAMB435, skin): > 50 µM
IC50 (cancer cell lines; Homo sapiens, MDA-MB-436, 72 h, MDAMB436, breast): 5.23 µM
IC50 (cancer cell lines; Homo sapiens, MDA-MB-468, 72 h, MDAMB468, breast): > 50 µM
IC50 (cancer cell lines; Homo sapiens, MG-63, 72 h, MG63, bone): 4.11 µM
IC50 (cancer cell lines; Homo sapiens, MHH-ES-1, 72 h, MHHES1, bone): 3.92 µM
IC50 (cancer cell lines; Homo sapiens, MIA PaCa-2, 72 h, MIAPACA2, pancreas): > 50 µM
IC50 (cancer cell lines; Homo sapiens, MINO, hematological): 1.51 µM
IC50 (cancer cell lines; Homo sapiens, MV4-11, 72 h, MV4-11, hematological): 2.25 µM
IC50 (cancer cell lines; Homo sapiens, NCI-H23, 72 h, NCI-H23, lung): 1.68 µM
IC50 (cancer cell lines; Homo sapiens, NCI-H82, 72 h, NCIH82, lung): > 50 µM
IC50 (cancer cell lines; Homo sapiens, NCI-H292, 72 h, NCIH292, lung): 5.22 µM
IC50 (cancer cell lines; Homo sapiens, NCI-H460, 72 h, NCIH460, ung): > 50 µM
IC50 (cancer cell lines; Homo sapiens, OVCAR-3, 72 h, OVCAR3, ovary): 1.82 µM
IC50 (cancer cell lines; Homo sapiens, OVCAR-4, 72 h, OVCAR4, ovary): 3.27 µM
IC50 (cancer cell lines; Homo sapiens, PANC-1, 72 h, PANC1, pancreas): > 50 µM
IC50 (cancer cell lines; Homo sapiens, PLC-PRF-5, 72 h, PLCPRF5, liver): > 50 µM
IC50 (cancer cell lines; Homo sapiens, Panc1005, 72 h, PANC1005, pancreas): 6.31 µM
IC50 (cancer cell lines; Homo sapiens, Ramos, hematological): 1.85 µM
IC50 (cancer cell lines; Homo sapiens, SAOS-2, 72 h, SAOS2, bone): 1.73 µM
IC50 (cancer cell lines; Homo sapiens, SF-268, 72 h, SF268, brain): > 50 µM
IC50 (cancer cell lines; Homo sapiens, SF-295, 72 h, SF295, brain): > 50 µM
IC50 (cancer cell lines; Homo sapiens, SK-BR-3, 72 h, SKBR3, breast): 3.13 µM
IC50 (cancer cell lines; Homo sapiens, SK-HEP1, 72 h, SKHEP1, liver): 4.99 µM
IC50 (cancer cell lines; Homo sapiens, SK-LMS-1, 72 h, SKLMS1, uterus): > 50 µM
IC50 (cancer cell lines; Homo sapiens, SK-MEL-5, 72 h, SKMEL5, skin): > 50 µM
IC50 (cancer cell lines; Homo sapiens, SK-MEL-28, 72 h, SKMEL28, skin): 3.1 µM
IC50 (cancer cell lines; Homo sapiens, SK-N-AS, SKNAS, brain): 0.75 µM
IC50 (cancer cell lines; Homo sapiens, SK-N-SH, SKNSH, brain): 0.6 µM
IC50 (cancer cell lines; Homo sapiens, SK-OV-3, 72 h, SKOV3, ovary): 2.37 µM
IC50 (cancer cell lines; Homo sapiens, SNB-75, 72 h, SNB75, brain): > 50 µM
IC50 (cancer cell lines; Homo sapiens, SU-DHL10, 72 h, SU-DHL-10, hematological): 4.83 µM
IC50 (cancer cell lines; Homo sapiens, SU-DHL-6, 72 h, SU-DHL-6, hematological): 6.01 µM
IC50 (cancer cell lines; Homo sapiens, SW-620, 72 h, SW620, colon): > 50 µM
IC50 (cancer cell lines; Homo sapiens, TE-671, 72 h, TE671, muscle): 3.05 µM
IC50 (cancer cell lines; Homo sapiens, THP-1, 72 h, THP-1, hematological): 3.23 µM
IC50 (cancer cell lines; Homo sapiens, U2OS, bone): > 50 µM
IC50 (cancer cell lines; Homo sapiens, U-87 MG, U87MG, brain): 5.24 µM
IC50 (cancer cell lines; Homo sapiens, UMUC3, 72 h, UMUC3, bladder): > 50 µM
IC50 (cancer cell lines; Homo sapiens, UO-31, 72 h, UO31, kidney): > 50 µM
IC50 (cancer cell lines; Homo sapiens, WSU-NHL, hematological): 2.55 µM
IC50 (cancer cell lines; NCI-H358M, NCIH358M, lung): 1.63 µM
IC50 (cancer cell lines; PBMC, hematological): > 50 µM
IC50 (cancer cell lines; RD-ES, RDES, bone): > 50 µM
IC50 (human LINE-1): 0.0036 µM
